The values below come from US8748415B2 (priority 2011, dated 2014).

The assay relates to recombinant NL4-3 virus (Renilla luciferase in nef, Gag P373S). Put plainly: HIV cell culture assay (luciferase activity in MT-2 cells infected with NLRluc recombinant virus). Type of assay: cell-based. The following applies: NL43, MT-2 cells infected 4-5 days with NLRluc recombinant virus. The essentials: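 MT-2 cells in RPMI/10% FBS were infected with recombinant NL4-3 (NLRluc), produced by 293T transfection and titered in MT-2 by luciferase. Serial inhibitor dilutions were present throughout a 4–5 day infection. Antiviral activity was quantified as Renilla luciferase signal via a modified Dual Luciferase read.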

Take `C=C(C)[C@@H]1CC[C@]2(CNCCC(=O)OC)CC[C@]3(C)[C@H](CC[C@@H]4[C@@]5(C)CC=C(c6ccc(C(=O)O)cc6)C(C)(C)[C@@H]5CC[C@]43C)[C@@H]12` [Example 176, 4-((1R,3aS,5aR,5bR,7aR,11aS,11bR,13aR,13bR)-3a-((3-methoxy-3-oxopropylamino)methyl)-5a,5b,8,8,11a-pentamethyl-1-(prop-1-en-2-yl)-2,3,3a,4,5,5a,5b,6,7,7a,8,11,11a,11b,12,13,13a,13b-octadecahydro-1H-cyclopenta[a]chrysen-9-yl)benzoic acid]: for the setting “numeric value”, the EC50 was 14 nM.

With `C=C(C)[C@@H]1CC[C@]2(CNCC(c3cccnc3)N(C)C)CC[C@]3(C)[C@H](CC[C@@H]4[C@@]5(C)CC=C(c6ccc(C(=O)O)cc6)C(C)(C)[C@@H]5CC[C@]43C)[C@@H]12` (stereo partly drawn) [Example 10, 4-((1R,3aS,5aR,5bR,7aR,11aS,11bR,13aR,13bR)-3a-((2-(dimethylamino)-2-(pyridin-3-yl)ethylamino)methyl)-5a,5b,8,8,11a-pentamethyl-1-(prop-1-en-2-yl)-2,3,3a,4,5,5a,5b,6,7,7a,8,11,11a,11b,12,13,13a,13b-octadecahydro-1H-cyclopenta[a]chrysen-9-yl)benzoic acid], the EC50 (numeric value) came out at 4 nM. For the molecule `C=C(C)[C@@H]1CC[C@]2(CNC(=O)OCCN3CCS(=O)(=O)CC3)CC[C@]3(C)[C@H](CC[C@@H]4[C@@]5(C)CC=C(c6ccc(C(=O)O)cc6)C(C)(C)[C@@H]5CC[C@]43C)[C@@H]12` [Example 165, 4-((1R,3aS,5aR,5bR,7aR,11aS,11bR,13aR,13bR)-3a-((((2-(1,1-dioxido-4-thiomorpholinyl)ethoxy)carbonyl)amino)methyl)-1-isopropenyl-5a,5b,8,8,11a-pentamethyl-2,3,3a,4,5,5a,5b,6,7,7a,8,11,11a,11b,12,13,13a,13b-octadecahydro-1H-cyclopenta[a]chrysen-9-yl)benzoic acid], the EC50 (class symbol) is less than 100 nM. Same read-out and setting: in the case of `C=C(C)[C@@H]1CC[C@]2(CNCCC(=O)N(C)CCS(C)(=O)=O)CC[C@]3(C)[C@H](CC[C@@H]4[C@@]5(C)CC=C(c6ccc(C(=O)O)cc6)C(C)(C)[C@@H]5CC[C@]43C)[C@@H]12` [Example 125, 4-((1R,3aS,5aR,5bR,7aR,11aS,11bR,13aR,13bR)-5a,5b,8,8,11a-pentamethyl-3a-((3-(methyl(2-(methylsulfonyl)ethyl)amino)-3-oxopropylamino)methyl)-1-(prop-1-en-2-yl)-2,3,3a,4,5,5a,5b,6,7,7a,8,11,11a,11b,12,13,13a,13b-octadecahydro-1H-cyclopenta[a]chrysen-9-yl)benzoic acid] it was less than 100 nM; in that of `C=C(C)[C@@H]1CC[C@]2(CNCCCNC)CC[C@]3(C)[C@H](CC[C@@H]4[C@@]5(C)CC=C(c6ccc(C(=O)O)cc6)C(C)(C)[C@@H]5CC[C@]43C)[C@@H]12` [Example 19, 4-((1R,3aS,5aR,5bR,7aR,11aS,11bR,13aR,13bR)-5a,5b,8,8,11a-pentamethyl-3a-((3-(methylamino)propylamino)methyl)-1-(prop-1-en-2-yl)-2,3,3a,4,5,5a,5b,6,7,7a,8,11,11a,11b,12,13,13a,13b-octadecahydro-1H-cyclopenta[a]chrysen-9-yl)benzoic acid], less than 100 nM; in that of `C=C(C)[C@@H]1CC[C@]2(CNC(=O)[C@H](N)CCS(C)(=O)=O)CC[C@]3(C)[C@H](CC[C@@H]4[C@@]5(C)CC=C(c6ccc(C(=O)O)cc6)C(C)(C)[C@@H]5CC[C@]43C)[C@@H]12` [Example 135, 4-((1R,3aS,5aR,5bR,7aR,11aS,11bR,13aR,13bR)-3a-(((R)-2-amino-4-(methylsulfonyl)butanamido)methyl)-5a,5b,8,8,11a-pentamethyl-1-(prop-1-en-2-yl)-2,3,3a,4,5,5a,5b,6,7,7a,8,11,11a,11b,12,13,13a,13b-octadecahydro-1H-cyclopenta[a]chrysen-9-yl)benzoic acid], less than 100 nM. As for `C=C(C)[C@@H]1CC[C@]2(CNC3(C(=O)OC)CC3)CC[C@]3(C)[C@H](CC[C@@H]4[C@@]5(C)CC=C(c6ccc(C(=O)O)cc6)C(C)(C)[C@@H]5CC[C@]43C)[C@@H]12` [Example 51, 4-((1R,3aS,5aR,5bR,7aR,11aS,11bR,13aR,13bR)-3a-((1-(methoxycarbonyl)cyclopropylamino)methyl)-5a,5b,8,8,11a-pentamethyl-1-(prop-1-en-2-yl)-2,3,3a,4,5,5a,5b,6,7,7a,8,11,11a,11b,12,13,13a,13b-octadecahydro-1H-cyclopenta[a]chrysen-9-yl)benzoic acid], the EC50 (class symbol) is less than 100 nM.

As to `C=C(C)[C@@H]1CC[C@]2(CNCCN3CCC(F)(F)CC3)CC[C@]3(C)[C@H](CC[C@@H]4[C@@]5(C)CC=C(c6ccc(C(=O)O)cc6)C(C)(C)[C@@H]5CC[C@]43C)[C@@H]12` [Example 48, 4-((1R,3aS,5aR,5bR,7aR,11aS,11bR,13aR,13bR)-3a-((2-(4,4-difluoropiperidin-1-yl)ethylamino)methyl)-5a,5b,8,8,11a-pentamethyl-1-(prop-1-en-2-yl)-2,3,3a,4,5,5a,5b,6,7,7a,8,11,11a,11b,12,13,13a,13b-octadecahydro-1H-cyclopenta[a]chrysen-9-yl)benzoic acid], the EC50 (class symbol) is less than 100 nM. Still for that read-out and setting: in the case of `C=C(C)[C@@H]1CC[C@]2(CNCCCN3CCCC3)CC[C@]3(C)[C@H](CC[C@@H]4[C@@]5(C)CC=C(c6ccc(C(=O)O)cc6)C(C)(C)[C@@H]5CC[C@]43C)[C@@H]12` [Example 68, 4-((1R,3aS,5aR,5bR,7aR,11aS,11bR,13aR,13bR)-5a,5b,8,8,11a-pentamethyl-1-(prop-1-en-2-yl)-3a-((3-(pyrrolidin-1-yl)propylamino)methyl)-2,3,3a,4,5,5a,5b,6,7,7a,8,11,11a,11b,12,13,13a,13b-octadecahydro-1H-cyclopenta[a]chrysen-9-yl)benzoic acid] it was less than 100 nM. The same measure, in the same setting: in the case of `C=C(C)[C@@H]1CC[C@]2(CNC(=O)CCN3CCS(=O)(=O)CC3)CC[C@]3(C)[C@H](CC[C@@H]4[C@@]5(C)CC=C(c6ccc(C(=O)O)cc6)C(C)(C)[C@@H]5CC[C@]43C)[C@@H]12` [Example 146, 4-((1R,3aS,5aR,5bR,7aR,11aS,11bR,13aR,13bR)-3a-(((3-(1,1-dioxido-4-thiomorpholinyl)propanoyl)amino)methyl)-1-isopropenyl-5a,5b,8,8,11a-pentamethyl-2,3,3a,4,5,5a,5b,6,7,7a,8,11,11a,11b,12,13,13a,13b-octadecahydro-1H-cyclopenta[a]chrysen-9-yl)benzoic acid] it was less than 100 nM; in that of `C=C(C)[C@@H]1CC[C@]2(CN(CCCN3CCS(=O)(=O)CC3)C(C)=O)CC[C@]3(C)[C@H](CC[C@@H]4[C@@]5(C)CC=C(c6ccc(C(=O)O)cc6)C(C)(C)[C@@H]5CC[C@]43C)[C@@H]12` [Example 17, 4-((1R,3aS,5aR,5bR,7aR,11aS,11bR,13aR,13bR)-5a,5b,8,8,11a-pentamethyl-1-(prop-1-en-2-yl)-3a-((3-(1-dioxo-thiomorpholino)propylamino)methyl)-2,3,3a,4,5,5a,5b,6,7,7a,8,11,11a,11b,12,13,13a,13b-octadecahydro-1H-cyclopenta[a]chrysen-9-yl)benzoic acid], less than 100 nM.
